Source: patent publication US8859625B2, “Methods to prepare penta-1,4-dien-3-ones and substituted cyclohexanones and derivatives with antitumoral and antiparasitic properties, the compounds and their uses” (Universidade Bandeirante de Sao Paulo-Academia, Paulista …, priority 2006, dated 2014)
Like-named read-outs stand apart in the source and are kept apart here.

Experiments:
[1] = cited from earlier work
B16F10 melanoma = B16F10 melanoma tumors implanted in C57BL/6J mice, intraperitoneal treatment; tumor area and volume; assay type: in vivo; details: diluted in Miglyol 810, intraperitoneal 100 μl daily, 14 days
Method: After the Day 4 of tumor cells implant (2×10^5 tumoral cells/mL), the animals were splitted in two groups: the test group, treated with HB-1 compound diluted in Miglyol 810® and the control group, which received only the diluent (Miglyol 810®) in the same volume as the test group. The animals were daily treated by intraperitoneal route. Concomitantly, measurements of animal weight and tumor size (two measures—length×width) were performed and tumor aspect registered by photographies.
After the Day 14, the animals were sacrificed by cervical displacement, tumors were removed, and necropsy performed to remove all internal organs and macroscopic lesions for hystopathologic analysis.
Tumoral parameters were obtained by calculation of tumor average area (A) and volume (V), through the following formulas A=πR^2 and V=4/3πR^3, where (R=average tumor radius). […]
After tumoral cell implant, the animals were treated with the HB-2 compound diluted in Miglyol 810® and with (HB2+HB-1) conjugate whereas the control group received the same volume of diluent and by the same administration route (intraperitoneal—100 μl). Daily, the animals received the compounds (100 μl) and the control group received Miglyol 810®, the animals were weighted, and the tumors were measured (length×width) and photographed. […]

[2] = tested on: human fibroblasts of normal skin; test: MTT cytotoxic and antiproliferative effects on human fibroblasts of normal skin; assay type: cell-based; details: diluted in Miglyol 810, 24 hours
Method: Analysis of Cytotoxic Effects by the MTT Method and Antiproliferative Effects for HB-2 Compound Diluted in Miglyol 810® and Miglyol 810® Control on Human Fibroblasts of Normal Skin.
Skin fragments were asseptically collected during surgical procedures for tissue remotion in aesthetic surgery and immediately transferred to 50 mL sterile vials containing HAM F-12 (Gibco) culture medium supplemented with 20% of bovine fetal serum. Fragments were chopped, cleaned, and the smaller fragments were cultivated in Petri dishes in a Ham-F12 culture medium supplemented with 10% bovine fetal serum, and kept in humidified stoven at 37° C. and 5% C02.
When attained subconfluence, the cells were trypsinized for 5 minutes, inactivated with 10% bovine fetal serum, centrifuged for 10 minutes at 2000 rpm at 4° C., transferred to 96 well flat bottom plates, and cultivated for 24 hours in a CO2 5% stoven. Fibroblasts were treated for 24 hours with different concentrations of HB-2 compound diluted in Miglyol 810® and the control group received the same volumes of Miglyol alone; cytotoxic and antiproliferative effects were evaluated by the MTT colorimetric method.

B16F10 melanoma cells = test: Cytotoxic and antiproliferative effects by the MTT colorimetric method on B16F10 melanoma cells; assay type: cell-based, murine; details: for IC50: Mus musculus
Excerpt: Analysis of Cytotoxic and Antiproliferative Effects of HB-1 Compound and Miglyol 810® as Control by the MTT Colorimetric Method on B16F10 Melanoma Cells.
The colorimetric methodology for the respiratory route of mitochondria MTT (3-(4,5-dimethylthiazol-2-yl)2,5-diphenyl tetrazolium bromide) was used, as described by MOSMANN (1983). This method is based on the reduction of MTT to formazan by living cells. After growth and in vitro confluence of normal and tumoral cells, different concentrations of the HB-1 compound diluted in Miglyol 810® and the diluent-control (Miglyol 810®) have been added on the adhering cells, incubated for 24 hour. After the referred period, 10 μl of MTT (5 mg/mL) were added and incubated for 3 hours in stove with 5% CO2 at 37° C. After this period, the content of the culture plates were centrifuged for 2 minutes at 1800 rpm, at 4° C., the supernatant was removed and 100 μL of dimethyl sulfoxide (DMSO) were added to dissolve formazan crystals previously constituted and precipitated. The absorbances were obtained by an ELISA reader at 540 nm (TiterTek Multiskan) wavelength, with the results obtained shown in FIG. 12.
IC50 Evaluation for B16F10 Melanoma Cells, Obtained from the Linear Equation.

[3] = Acute and subchronic toxicology in Balb-c mice by the endovenous route; assay type: in vivo
Method: Acute and Subchronic Toxicology of DM-1 in Balb-c Mice by the Endovenous Route.
Balb-c mice were weighted and housed in the biotery, subdivided into groups of 05 animals per cage and, after two weeks, received the DM-1 compound in different concentrations by the endovenous route. The compound was administered in a 0.2 mL volume using microseringe, for all concentrations, through the retro-orbital venous plexus.

T lymphocytes = test: Cytotoxic and proliferative activity on T lymphocytes (MTT, compared to PHA); assay type: cell-based, C57BL/6J mice
Method: Preparation of T Lymphocytes
Groups composed by 5 C57BL/6J mice of 2 months of age were sacrificed by cervical displacement and its lymph nodes chain from axillary, popliteal, and mesenteric regions were removed under sterile conditions. Lymph nodes were maintained in RPMI-1640 culture medium supplemented with 10% inactivated bovine fetal serum at 56° C. in the presence of antibiotics, and debridement was performed with the assistance of a bistury. The resulting cell suspension was filtered through 30 μm dialysis membrane and centrifuged for 10 minutes at 1800 rpm at 4° C. Cell pellet was resuspended in 5 mL RPMI complete medium and, after that, incubated in Petri dishes containing 10 mL bovine fetal serum for 1 hour in stove, at 37° C. and 5% CO2. […] Cell concentration was adjusted in Mallassez chamber to a 5×10^5 cells/mL concentration and cell viability was determined by the exclusion method with Trypan blue.
Cytotoxic and proliferative activities were determined in a 96 well plate and compared to mitogenic activity of phytohemagglutinin (PHA) and evaluated by the MTT calorimetric method. The obtained values were expressed as percentage.
The data of each experiment were statistically analysed by the ANOVA variance test with de p<0.05 significance.

COc1cccc2c1C(=O)c1c(O)c3c(c(O)c1C2=O)C[C@@](O)(C(=O)CO)C[C@@H]3O[C@H]1C[C@H](N)[C@H](O)[C@H](C)O1 [Doxorubicin]
50% LETHAL DOSE ([1]; background table): 20 mg/kg
LETAL DOSE 50% ([1]; comparison table, drugs of the therapeutics): 20 mg/kg

COc1cc(C=CC(=O)C=Cc2ccc(OC(C)=O)c(OC)c2)ccc1OC(C)=O [HB-2, 4-[5-(4-acetoxy-3-methoxy-phenyl)-3-oxo-penta-1,4-dienyl]-2-methoxy-phenylacetate]
reduction of tumoral burden (tumor area and volume) (B16F10 melanoma): 60%
cytotoxic effect in normal human fibroblasts [2]: no cytotoxic effect was observed

COc1cc(/C=C/C(=O)/C=C/c2ccc(O)c(OC)c2)ccc1[O-].[Na+] [DM-1, sodium 4-[5-(4-hydroxy-3-methoxy-phenyl)-3-oxo-penta-1,4-dienyl]-2-methoxy-phenolate]
increase in cytotoxic effects (in vitro efficacy) (B16F10 melanoma cells; monosodium composition relative to HB-1): 7.0 fold
LD50 compared to doxorubicin, fold smaller ([3]; Balb-c, mouse, in vivo, 24 h): 35 fold
50% lethal dose (DL50) ([3]; endovenous route): 14 mg/kg
maximum tolerable dose ([3]; endovenous route): 14 mg/kg
behavioral alteration after the administration ([3]; endovenous, 0.2 mL via retro-orbital venous plexus): no behavioral alteration was observed
macroscopic and hystopathologic alterations of the internal organs ([3]; necropsy at Day 30): no significant macroscopic and hystopathologic alterations
acute respiratory and cardiac toxicity ([3]; preclinic tests): has not present any suggestive effect of acute respiratory and cardiac toxicity

COc1cc(/C=C/C(=O)/C=C/c2ccc([O-])c(OC)c2)ccc1[O-].[Na+].[Na+] [DM-2, disodium 3-oxo-penta-1,4-dienyl-bis(2-methoxy-phenolate)]
toxic activity on normal cells (T lymphocytes; T lymphocytes): no toxic activity on normal cells
proliferative activity of T lymphocytes (T lymphocytes; different concentrations, compared to PHA 2.5 and 5.0 μg): induced no proliferative activity
in vitro efficacy in relation to the monosodium DM-1 compound, fold smaller (B16F10 melanoma cells): around 6.0 fold
IC50 (B16F10 melanoma cells; B16-F10, read-out: DOSE, footnote: obtained by preclinic experimental models): 1.9 µg/mL
IC50 (B16F10 melanoma cells; B16-F10, sodium salts, B16F10 murine melanoma, MTT, read-out: IC50): 7.95 µg/mL
LETAL DOSE 50% ([3]; comparison table, own compound): 700 mg/kg
